# Assay results published in PubChem BioAssay AID248 (DTP/NCI, 2004).
# “And” between values parts separate entries of the source, which are not always exact repeats. Equal entries are not always repeated. Inconclusive results and toxic doses are left out.
# Test system: L1210 leukemia ip in BDF1 mice, survival T/C
# Test: NCI In Vivo Anticancer Drug Screen. Data for tumor model L1210 Leukemia (intraperitoneal) in B6D2F1 (BDF1) mice
# Conditions: endpoint: mean survival time, higher = longer survival
# Outline: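 Tumor was transplanted into mice, which were then dosed with test compound or vehicle alone. Survival was recorded for each group, and the treated figure was expressed relative to the control figure.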
# [1] = dose: 10.0 mg/kg/injection, schedule: Q01DX001 (ip), vehicle: saline
# [2] = dose: 100.0 mg/kg/injection, schedule: Q04DX003 (ip), vehicle: Klucel (hydroxypropylcellulose) (HPC)
# [3] = dose: 200.0 mg/kg/injection, schedule: Q04DX003 (ip), vehicle: Klucel (hydroxypropylcellulose) (HPC)
# [4] = dose: 400.0 mg/kg/injection, schedule: Q04DX003 (ip), vehicle: Klucel (hydroxypropylcellulose) (HPC)
# [5] = dose: 100.0 mg/kg/injection, schedule: Q01DX001 (ip), vehicle: Klucel (hydroxypropylcellulose) (HPC)
# [6] = dose: 400.0 mg/kg/injection, schedule: Q01DX001 (ip), vehicle: Klucel (hydroxypropylcellulose) (HPC)
# [7] = dose: 100.0 mg/kg/injection, schedule: Q04DX002 (ip), vehicle: saline with Tween-80
# [8] = dose: 200.0 mg/kg/injection, schedule: Q04DX002 (ip), vehicle: saline with Tween-80
compound,measurement,setting,value
CCCCOc1ccc(CC(N)C(=O)O)cc1N(CCCl)CCCl (configuration not stated),T/C,"dose: 6.6 mg/kg/injection, schedule: Q01DX001 (ip), vehicle: carboxymethylcellulose (CMC)",111 % of control
same,T/C,"dose: 10.0 mg/kg/injection, schedule: Q01DX001 (ip), vehicle: carboxymethylcellulose (CMC)",116 % of control
same,T/C,[1],122 % of control
same,T/C,"dose: 30.0 mg/kg/injection, schedule: Q01DX001 (ip), vehicle: saline",107 % of control
same,T/C,"dose: 60.0 mg/kg/injection, schedule: Q01DX001 (ip), vehicle: saline",102 % of control
same,T/C,"dose: 90.0 mg/kg/injection, schedule: Q01DX001 (ip), vehicle: saline",101 % of control
C(=NCCc1ccccc1)c1ccccc1B1OB(c2ccccc2C=NCCc2ccccc2)OB(c2ccccc2C=NCCc2ccccc2)O1,T/C,"dose: 100.0 mg/kg/injection, schedule: Q01DX009 (ip), vehicle: Klucel (hydroxypropylcellulose) (HPC)",97 % of control
same,T/C,[2],91 % of control
same,T/C,"dose: 200.0 mg/kg/injection, schedule: Q01DX009 (ip), vehicle: Klucel (hydroxypropylcellulose) (HPC)",97 % of control
same,T/C,[3],89 % of control
same,T/C,"dose: 400.0 mg/kg/injection, schedule: Q01DX009 (ip), vehicle: Klucel (hydroxypropylcellulose) (HPC)",102 % of control
same,T/C,[4],94 % of control
O=C1CC2C(=O)CC1C(C(=O)O)C2C(=O)O (configuration not stated),T/C,"dose: 75.0 mg/kg/injection, schedule: Q01DX001 (ip), vehicle: saline",102 % of control
same,T/C,[5],103 % of control
same,T/C,"dose: 150.0 mg/kg/injection, schedule: Q01DX001 (ip), vehicle: saline",104 % of control
same,T/C,"dose: 200.0 mg/kg/injection, schedule: Q01DX001 (ip), vehicle: Klucel (hydroxypropylcellulose) (HPC)",119 % of control
same,T/C,"dose: 300.0 mg/kg/injection, schedule: Q01DX001 (ip), vehicle: saline",105 % of control
same,T/C,[6],98 % of control
O=c1c2[nH]cnc2nnn1CCc1ccccc1,T/C,"dose: 100.0 mg/kg/injection, schedule: Q01DX001 (ip), vehicle: other",94 % of control
same,T/C,"dose: 200.0 mg/kg/injection, schedule: Q01DX001 (ip), vehicle: other",93 % of control
same,T/C,"dose: 400.0 mg/kg/injection, schedule: Q01DX001 (ip), vehicle: other",91 % of control
O=S(=O)(Nc1cc(S(=O)(=O)c2ccccc2)c(NS(=O)(=O)c2ccccc2)c(Cl)c1Cl)c1ccccc1,T/C,"dose: 75.0 mg/kg/injection, schedule: Q04DX003 (ip), vehicle: Klucel (hydroxypropylcellulose) (HPC)",103 % of control
same,T/C,"dose: 150.0 mg/kg/injection, schedule: Q04DX003 (ip), vehicle: Klucel (hydroxypropylcellulose) (HPC)",92 % of control
same,T/C,"dose: 300.0 mg/kg/injection, schedule: Q04DX003 (ip), vehicle: Klucel (hydroxypropylcellulose) (HPC)",95 % of control
COP(=O)(NC(C)=O)OC,T/C,[7],108 % of control
same,T/C,[8],102 % of control
same,T/C,"dose: 400.0 mg/kg/injection, schedule: Q04DX002 (ip), vehicle: saline with Tween-80",150 % of control
Cc1cc(NC(=O)NCc2ccc([N+](=O)[O-])cc2Cl)ccc1S(=O)(=O)F,T/C,[2],98 % of control
same,T/C,[3],98 % of control
same,T/C,[4],106 % of control
[N-]=[N+]=C1N=C(Cl)N=C1c1ncn[nH]1,T/C,"dose: 25.0 mg/kg/injection, schedule: Q01DX001 (ip), vehicle: Klucel (hydroxypropylcellulose) (HPC)",97 % of control
same,T/C,"dose: 50.0 mg/kg/injection, schedule: Q01DX001 (ip), vehicle: Klucel (hydroxypropylcellulose) (HPC)",108 % of control
same,T/C,[5],102 % of control and 112 % of control
same,T/C,[6],112 % of control
COc1cccc(/C(C#N)=C\O)c1,T/C,[7],104 % of control
same,T/C,[8],96 % of control
COC1C(O)C(C)OC(OC2CCC3(C)C(CCC4C3C(O)CC3(C)C(C5=CC(=O)OC5)CCC43O)C2)C1O (configuration not stated),T/C,"dose: 5.0 mg/kg/injection, schedule: Q01DX001 (ip), vehicle: saline",103 % of control
same,T/C,[1],103 % of control
same,T/C,"dose: 20.0 mg/kg/injection, schedule: Q01DX001 (ip), vehicle: saline",101 % of control
C/C=C\C(C)C(C)C (configuration not stated),T/C,"dose: 50.0 mg/kg/injection, schedule: Q01DX009 (ip), vehicle: saline",93 % of control
same,T/C,"dose: 100.0 mg/kg/injection, schedule: Q01DX009 (ip), vehicle: saline",97 % of control
same,T/C,"dose: 200.0 mg/kg/injection, schedule: Q01DX009 (ip), vehicle: saline",93 % of control
